Data taken from patent publication US20260315604A1, “OTUB1 Small-Molecule Binders and OTUB1-recruiting Deubiquitinase-targeting Chimeras (DUBTACs)” (ICAHN SCHOOL OF MEDICINE AT MOUNT SINAI, priority 2023, published 2026).

Molecular target: T1, Human OTUB1 wild-type (Homo sapiens, UniProt Q96FW1)
T1 construct: His tag (N); made in house; host or cells: E. coli BL21-CodonPlus (DE3)-RIPIL
Assay: Covalent modification of OTUB1 (adduct formation), mass spectrometry-based assay (OTUB1 covalent binders; selected CFTR or cGAS based bivalent compounds)
Assay type: binding
Details: covalent adduct formation with OTUB1 protein
Procedure, shortened: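 His-tagged human OTUB1 (10 μM), E. coli-expressed, incubated with compound (2500 μM) in 50 mM Tris-HCl pH 7.5, 150 mM NaCl, 0.5 mM TCEP for 1 h at room temperature. Adduct detected by intact-protein LC/ESI-TOF mass spectrometry after buffer exchange; duplicates.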

T1 sequence (Q96FW1 whole entry): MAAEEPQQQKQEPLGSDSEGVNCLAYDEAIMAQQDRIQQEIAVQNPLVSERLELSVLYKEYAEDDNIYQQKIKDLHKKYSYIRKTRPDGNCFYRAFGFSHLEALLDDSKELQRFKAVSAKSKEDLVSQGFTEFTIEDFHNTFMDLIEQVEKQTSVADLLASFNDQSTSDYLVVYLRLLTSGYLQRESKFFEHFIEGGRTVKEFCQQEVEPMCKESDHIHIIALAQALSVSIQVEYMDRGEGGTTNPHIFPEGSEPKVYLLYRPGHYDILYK

Compared with `Cc1ccc(NC(=O)C2CC3(C2)CN(C(=O)CCl)C3)s1` [XS185-5, 2-(2-chloroacetyl)-N-(5-methylthiophen-2-yl)-2-azaspiro[3.3]heptane-6-carboxamide], `Cc1ccc(N2CCN(C(=O)CCl)CC2=O)s1` [XS165-119, 4-(2-chloroacetyl)-1-(5-methylthiophen-2-yl)piperazin-2-one] is lower in “% of OTUB1 modified” value: 100% for the first, 25% for the second.

Compared with `CC(C)c1ccc(NC(=O)C2CCN(C(=O)/C=C/CN(C)C)CC2)s1` [XS175-178, (E)-1-(4-(dimethylamino)but-2-enoyl)-N-(5-isopropylthiophen-2-yl)piperidine-4-carboxamide], `CC(C)c1ccc(NC(=O)C2CCN(C(=O)/C=C/CN(C)C)C2)s1` (stereo not drawn) [XS175-180, (E)-1-(4-(dimethylamino)but-2-enoyl)-N-(5-isopropylthiophen-2-yl)pyrrolidine-3-carboxamide] is higher in “% of OTUB1 modified” value: 3% for the first, 8% for the second.

Compared with `CCC(=O)N1CC2CC(C1)N2C(=O)/C=C/CN(C)C` [XS209-28, (E)-4-(dimethylamino)-1-(3-propionyl-3,6-diazabicyclo[3.1.1]heptan-6-yl)but-2-en-1-one], `COCC#Cc1ccc(C(=O)N2CC3CC(C2)N3C(=O)/C=C/CN(C)C)s1` [XS197-93, (E)-4-(dimethylamino)-1-(3-(5-(3-methoxyprop-1-yn-1-yl)thiophene-2-carbonyl)-3,6-diazabicyclo[3.1.1]heptan-6-yl)but-2-en-1-one] is higher in “% of OTUB1 modified” value: 25% for the first, 80% for the second.

Compared with `Cc1ccc(N2CC3(CN(C(=O)/C=C/CN(C)C)C3)C2)s1` [XS185-3, (E)-4-(dimethylamino)-1-(6-(5-methylthiophen-2-yl)-2,6-diazaspiro[3.3]heptan-2-yl)but-2-en-1-one], `Cc1ccc(C(=O)N2C3CCC2CN(C(=O)/C=C/CN(C)C)C3)s1` [XS185-71, (E)-4-(dimethylamino)-1-(8-(5-methylthiophene-2-carbonyl)-3,8-diazabicyclo[3.2.1]octan-3-yl)but-2-en-1-one] is lower in “% of OTUB1 modified” value: 35% for the first, 15% for the second.

Going from `CN(C)CC#CC(=O)N1CC(C(=O)Nc2cc3ccccc3s2)C1` [XS224-106, N-(benzo[b]thiophen-2-yl)-1-(4-(dimethylamino)but-2-ynoyl)azetidine-3-carboxamide] to `CC(C)c1ccc(NC(=O)C2CN(C(=O)C#CC(C)(C)N(C)C)C2)s1` [XS224-117, 1-(4-(dimethylamino)-4-methylpent-2-ynoyl)-N-(5-isopropylthiophen-2-yl)azetidine-3-carboxamide], the “% of OTUB1 modified” value falls from 98% to 60%.

`Cc1cccc(N2CC3CCC(C2=O)N3C(=O)/C=C/CN(C)C)c1` (stereo not drawn) [XS190-182, (E)-8-(4-(dimethylamino)but-2-enoyl)-3-(m-tolyl)-3,8-diazabicyclo[3.2.1]octan-2-one] and `CC(=O)N1CCC(c2ccc(C(=O)N3CC4CC(C3)N4C(=O)/C=C/CN(C)C)s2)CC1` [XS197-72, (E)-1-(3-(5-(1-acetylpiperidin-4-yl)thiophene-2-carbonyl)-3,6-diazabicyclo[3.1.1]heptan-6-yl)-4-(dimethylamino)but-2-en-1-one] are the same in “% of OTUB1 modified” value: 90% for the first, 90% for the second.

First: CCCC(=O)N1CC2CC(C1)N2C(=O)C#CC(C)(C)N(C)C [XS209-168, 1-(3-butyryl-3,6-diazabicyclo[3.1.1]heptan-6-yl)-4-(dimethylamino)-4-methylpent-2-yn-1-one]
Second: CN(C)C(C)(C)C#CC(=O)N1CC(NC(=O)c2cc3c(s2)CCCC3)C1 [XS224-159, N-(1-(4-(dimethylamino)-4-methylpent-2-ynoyl)azetidin-3-yl)-4,5,6,7-tetrahydrobenzo[b]thiophene-2-carboxamide]
The “% of OTUB1 modified” value of the first is lower: 15% for the first, 92% for the second.

With `CC(=O)N1CCC(c2ccc(C(=O)N3CC4CC(C3)N4C(=O)/C=C/CN(C)C)s2)C1` (stereo not drawn) [XS197-71, (E)-1-(3-(5-(1-acetylpyrrolidin-3-yl)thiophene-2-carbonyl)-3,6-diazabicyclo[3.1.1]heptan-6-yl)-4-(dimethylamino)but-2-en-1-one] the “% of OTUB1 modified” value was 78%.
